Series [1] can be described thus: Tests for Safety (PD, AT, MTT), overall statement. From the text:
Based on the foregoing effect tests and safety tests, the anti-ulcer effect, antibacterial activity against HP, and safety of the example compounds of the present invention were studied.

Series [2] has as its system mice. Kind of series: AT: Single Dose Toxicity Pretest. In kind it is in vivo, mouse (male Slc:ICR). The protocol: AT: Single Dose Toxicity Pretest
Male Slc:ICR mice (5-week-old) were used. Each group has 3 to 5 mice and each mouse was fasted, but allowed free access to water, for 4 to 5 hours from 9 a.m. in the test day. Then, 2,000 mg/10 ml/kg of the sample compound dissolved or suspended in an aqueous solution of 0.5% sodium carboxymethylcellulose were orally administered thereto. To a control, only the vehicle was administered. […] The body weight was measured before and after the fasting as well as at the same time everyday. The dead animals were immediately subjected to autopsy and their organs were observed macroscopically. Also, the living animals were sacrificed with ether or carbon dioxide one week after the administration and then their organs were observed macroscopically.
The toxicity at the single dose of 2,000 mg/kg of the sample compound was expressed as being classified into 5 levels.
5: Mortality rate is 0%; no toxicity is found at all both in behavior and organs.
4: Mortality rate is 0%; while no toxicity is found in organs, slight toxicity is observed in behavior and body weight increase.
3: While there is a dead animal (though not all the animals are dead), no toxicity is found in organs.
2: Regardless of whether there is a dead animal or not, toxicity is found in organs.
1: All the animals are dead.

Structures are written as SMILES.

Take `CC(C)Cc1cc(C(=O)N2CCN(CC(C)C)CC2)ccc1OCc1ccc(F)cc1` [Example 21, 1-[4-(4-fluorobenzyloxy)-3-isobutylbenzoyl]-4-isobutylpiperazine]: the “safety (in words)” value in series [1] was “great improvement in safety”.
On to `CC(C)Cc1cc(CC(=O)N2CCN(CC(C)C)CC2)ccc1OCc1ccccc1` [Example 15, 1-(4-benzyloxy-3-isobutylphenylacetyl)-4-isobutylpiperazine], for which, in series [2] (mouse, 2,000 mg/kg oral, one week), the “AT: toxicity at single dose, level” value is given as 2.
Consider `CC(C)Cc1cc(C(=O)N2CCN(CC(C)C)CC2)ccc1OCc1ccc(F)cc1.Cl` [Example 22, 1-[4-(4-fluorobenzyloxy)-3-isobutylbenzoyl]-4-isobutylpiperazine hydrochloride], for which, in series [1], the “safety (in words)” value is reported as “great improvement in safety”.
`CC(C)Cc1cc(C(=O)N2CCN(CC(C)C)CC2)ccc1OCc1ccccc1` [Example 16, 1-(4-benzyloxy-3-isobutylbenzoyl)-4-isobutylpiperazine]: the “AT: toxicity at single dose, level” value in series [2] (mouse, in vivo) is 2.
In the case of `CC(C)Cc1cc(C(=O)N2CCN(CC(C)C)CC2)ccc1OCc1ccc(Cl)cc1` [Example 17, 1-[4-(4-chlorobenzyloxy)-3-isobutylbenzoyl]-4-isobutylpiperazine], in series [2] (mouse, in vivo), the “AT: toxicity at single dose, level” value was 2.

These data come from patent US5756505A, “N-acylpiperazine derivative, antibacterial drug and anti-ulcer drug” (Shiseido Co., Ltd., priority 1995, dated 1998).
